Holding throughout (assay type): biochemical
The target of assay [1] is T1, Phosphodiesterase PDE11A4 (Homo sapiens, UniProt Q9HCR9).
T1 construct: host or cells: insect Sf9 cells
The experiment in a line: Phosphodiesterase PDE11A4 enzyme assay. To be noted: N=2, Example 3. The text has this: (§1) Reference standards are run as an integral part of each assay to ensure the validity of the results obtained. Reference Compounds: • Phosphodiesterase PDE10A2 Papaverine • Phosphodiesterase PDE11A4 Dipyridamole • Phosphodiesterase PDE1A MMPX • Phosphodiesterase PDE2A EHNA • Phosphodiesterase PDE3A Cilostamide • Phosphodiesterase PDE4A1A Rolipram • Phosphodiesterase PDE4B1 Rolipram • Phosphodiesterase PDE5A Zaprinast • Phosphodiesterase PDE6 Zaprinast • Phosphodiesterase PDE7A IBMX • Phosphodiesterase PDE7B IBMX • Phosphodiesterase PDE8A1 Dipyridamole • Phosphodiesterase PDE9A2 Zaprinast
Phosphodiesterase PDE4A1A; Phosphodiesterase PDE4B1; Phosphodiesterase PDE10A2; Phosphodiesterase PDE11A4; Phosphodiesterase PDE2A; Phosphodiesterase PDE3A; Phosphodiesterase PDE7A; Phosphodiesterase PDE7B; and Phosphodiesterase PDE8A1: • Source: Human recombinant insect Sf9 cells • Substrate: 0.10 μM FAM-cAMP • Vehicle: 1.00% DMSO • Significance Crit.: ≥50% of max stimulation or inhibition • Incubation Buffer: 10 mM Tris-HCl, pH 7.2, 10 mM MgCl2, 0.05% NaN3, 0.1% phosphate-free BSA • Quantitation Method: Quantitation of Fluorescein-AMP-IMAP • Pre-Incub. Time/Temp: 15 minutes @25° C. • Incubation Time/Temp: 30 minutes @25° C.
IC50 values are determined by a non-linear, least squares regression analysis using MathIQ™ (ID Business Solutions Ltd., UK). […]

Another assay has as its target T2, Phosphodiesterase PDE4D2 (Homo sapiens, UniProt Q08499).
T2 construct: host or cells: insect Sf9 cells
Put plainly: Phosphodiesterase PDE4D2 enzyme assay. The procedure: Roliprami is used as a reference standard.
PDE4 assays are performed using methods adapted from the literature. See Houslay MD (2005) The long and short of vascular smooth muscle phosphodiesterase-4 as a putative therapeutic target. Mol Pharmacol. 68(3):563-567; MacKenzie S J and Houslay M D (2000) Action of rolipram on specific PDE4 cAMP phosphodiesterase isoforms and on the phosphorylation of cAMP-response element-binding protein (CREB) and p38 mitogen-activated protein (MAP) kinase in U937 monocytic cells. Biochem J. 347(Pt 2): 571-578.
Phosphodiesterase PDE4D2: • Source: Human recombinant insect Sf9 cells • Substrate: 0.10 μM FAM-cAMP • Vehicle: 1.00% DMSO • Significance Crit.: ≥50% of max stimulation or inhibition • Incubation Buffer: 10 mM Tris-HCl, pH 7.2, 10 mM MgCl2, 0.05% NaN3, 0.1% phosphate-free BSA • Quantitation Method: Quantitation of Fluorescein-AMP-IMAP • Pre-Incub. Time/Temp: 15 minutes @25° C. • Incubation Time/Temp: 15 minutes @25° C.
IC50 values are determined by a non-linear, least squares regression analysis using MathIQ™ (ID Business Solutions Ltd., UK). Where inhibition constants (Ki) are presented, the Ki values are calculated using the equation of Cheng and Prusoff (Cheng, Y., Prusoff, W.H., Biochem. Pharmacol. 22:3099-3108, 1973) using the observed IC50 of the tested compound, the concentration of radioligand employed in the assay, and the historical values for the KD of the ligand (obtained experimentally at Eurofins Panlabs, Inc.). Where presented, the Hill coefficient (nH), defining the slope of the competitive binding curve, is calculated using MathIQ™. […] Where IC50, Ki, and/or nH data are presented without Standard Error of the Mean (SEM), data are insufficient to be quantitative, and the values presented (Ki, IC50, nH) are interpreted with caution.

Another assay addresses T3, Phosphodiesterase PDE1A (Homo sapiens, UniProt P54750).
T3 construct: host or cells: insect Sf9 cells
The experiment in a line: Phosphodiesterase PDE1A enzyme assay. To be noted: N=2, Example 3.
Excerpt: as §1
Phosphodiesterase PDE1A; Phosphodiesterase PDE5A; and Phosphodiesterase PDE9A2: • Source: Human recombinant insect Sf9 cells • Substrate: 0.10 μM […] • Vehicle: 1.00% DMSO • Significance Crit.: ≥50% of max stimulation or inhibition • Incubation Buffer: 10 mM Tris-HCl, pH 7.2, 10 mM MgCl2, 0.05% NaN3, 0.1% phosphate-free BSA • Quantitation Method: Quantitation of Fluorescein-GMP-IMAP • Pre-Incub. Time/Temp: 15 minutes @25° C. • Incubation Time/Temp: 30 minutes @25° C.
IC50 values are determined by a non-linear, least squares regression analysis using MathIQ™ (ID Business Solutions Ltd., UK). […] Where presented, the Hill coefficient (nH), defining the slope of the competitive binding curve, is calculated using MathIQ™. […]

T2 sequence (Q08499 303-809 limits assumed): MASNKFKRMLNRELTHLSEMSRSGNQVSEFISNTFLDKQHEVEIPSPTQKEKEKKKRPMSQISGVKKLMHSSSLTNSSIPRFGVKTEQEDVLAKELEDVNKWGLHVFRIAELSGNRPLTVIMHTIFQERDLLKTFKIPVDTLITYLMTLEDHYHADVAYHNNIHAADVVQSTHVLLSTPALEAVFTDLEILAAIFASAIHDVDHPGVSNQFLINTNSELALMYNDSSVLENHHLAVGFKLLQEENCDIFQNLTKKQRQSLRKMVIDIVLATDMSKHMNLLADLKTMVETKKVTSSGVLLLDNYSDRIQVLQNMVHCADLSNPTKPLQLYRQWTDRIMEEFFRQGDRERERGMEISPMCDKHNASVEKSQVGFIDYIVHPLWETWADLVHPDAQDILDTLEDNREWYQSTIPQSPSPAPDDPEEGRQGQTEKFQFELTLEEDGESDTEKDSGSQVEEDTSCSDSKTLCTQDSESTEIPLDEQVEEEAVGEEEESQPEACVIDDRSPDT
T1 sequence (Q9HCR9 whole entry): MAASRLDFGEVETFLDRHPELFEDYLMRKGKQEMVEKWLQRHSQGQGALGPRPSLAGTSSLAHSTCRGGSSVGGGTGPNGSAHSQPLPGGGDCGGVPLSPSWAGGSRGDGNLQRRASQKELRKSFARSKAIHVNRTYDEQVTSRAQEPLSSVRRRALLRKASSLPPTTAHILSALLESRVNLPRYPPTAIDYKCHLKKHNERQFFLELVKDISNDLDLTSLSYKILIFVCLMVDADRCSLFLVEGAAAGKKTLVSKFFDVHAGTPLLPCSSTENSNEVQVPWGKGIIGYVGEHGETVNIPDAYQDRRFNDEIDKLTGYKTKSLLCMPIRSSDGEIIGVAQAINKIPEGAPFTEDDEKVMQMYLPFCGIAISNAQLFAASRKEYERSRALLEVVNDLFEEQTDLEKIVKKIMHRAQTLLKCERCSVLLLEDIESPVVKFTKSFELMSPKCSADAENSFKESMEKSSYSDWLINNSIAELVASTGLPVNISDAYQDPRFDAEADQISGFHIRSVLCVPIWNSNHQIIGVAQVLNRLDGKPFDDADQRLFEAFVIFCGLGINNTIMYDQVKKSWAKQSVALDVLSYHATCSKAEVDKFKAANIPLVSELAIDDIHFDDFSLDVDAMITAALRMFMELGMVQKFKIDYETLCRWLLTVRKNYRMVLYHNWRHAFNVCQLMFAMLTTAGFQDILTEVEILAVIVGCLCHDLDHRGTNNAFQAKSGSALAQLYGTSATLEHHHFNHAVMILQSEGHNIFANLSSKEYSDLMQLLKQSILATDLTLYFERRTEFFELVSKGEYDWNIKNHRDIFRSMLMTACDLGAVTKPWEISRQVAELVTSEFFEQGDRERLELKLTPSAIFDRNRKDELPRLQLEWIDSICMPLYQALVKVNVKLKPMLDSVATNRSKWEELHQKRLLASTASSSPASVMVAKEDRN
T3 sequence (P54750 whole entry): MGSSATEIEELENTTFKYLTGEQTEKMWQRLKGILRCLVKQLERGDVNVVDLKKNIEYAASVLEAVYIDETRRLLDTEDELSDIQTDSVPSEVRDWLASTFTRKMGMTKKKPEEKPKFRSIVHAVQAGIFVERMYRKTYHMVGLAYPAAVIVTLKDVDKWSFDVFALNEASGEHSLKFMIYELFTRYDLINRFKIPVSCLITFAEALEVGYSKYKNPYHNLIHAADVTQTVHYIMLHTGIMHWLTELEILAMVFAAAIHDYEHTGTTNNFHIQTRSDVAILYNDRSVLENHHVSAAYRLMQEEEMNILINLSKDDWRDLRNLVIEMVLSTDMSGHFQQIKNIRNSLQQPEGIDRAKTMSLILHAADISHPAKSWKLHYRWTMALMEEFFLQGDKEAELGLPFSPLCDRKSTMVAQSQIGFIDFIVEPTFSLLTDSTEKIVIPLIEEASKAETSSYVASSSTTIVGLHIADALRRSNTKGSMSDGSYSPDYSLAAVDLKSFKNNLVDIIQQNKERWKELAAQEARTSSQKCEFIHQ

In general, inhibition refers to the change of the read-out against control, counted positive when it falls. For orientation: IC50 means the concentration needed to halve the response being measured. Higher therefore signals lower potency. As to `CNc1nc(Nc2ccccc2)nc(OCC(F)(F)C(F)F)n1` [compound of Formula (I), N^2-methyl-N^4-phenyl-6-(2,2,3,3-tetrafluoropropoxy)-1,3,5-triazine-2,4-diamine], the inhibition at 10 µM in assay [1] is 14%; at Phosphodiesterase PDE4D2 (10 μM (first line, r2), N=2, Example 5), 99%; against Phosphodiesterase PDE1A, -8%. For the same compound, on Phosphodiesterase PDE4D2 (0.03 μM, N=2, Example 5), the inhibition at 0.03 µM worked out at 70%. At Phosphodiesterase PDE4D2 (0.1 μM, N=2, Example 5), the inhibition at 0.1 µM worked out at 83%. Further, on Phosphodiesterase PDE4D2 (0.3 μM, N=2, Example 5), the inhibition at 0.3 µM was 91%. The inhibition at 1 µM at Phosphodiesterase PDE4D2 (1 μM, N=2, Example 5) is 96%. Moreover, the inhibition at 3 µM against Phosphodiesterase PDE4D2 (3 μM, N=2, Example 5) is 97%. Also, at Phosphodiesterase PDE4D2 (Example 5), the concentration for half-maximal inhibition (IC50) turned out to be 6.19 nM.
